Experiments:
[1] = Alizarin Red S displacement: equilibrium between boronic acid and diols or other ligands; format: physicochemical; settings: 0.10 M phosphate buffer, pH 7.4; no Keq range given
Text: To assess the potential of boronic acid diol pairs as potential summa linkers within Coferons, the Alizarin Red S method was used essentially as described (Springsteen, G. and Wang, B, Tetrahedron 58: 5291-5300 (2002), which is hereby incorporated by reference in its entirety). Alizarin Red S gives a red color when free in solution, and shifts to yellow when complexed to boronic acids.
To determine equilibria between boronic acid species and diols or other ligands, a solution containing 2.0×10^−3 M boronic acid, 1.0×10^−4 M of ARS in 0.10 M phosphate buffer, pH 7.4 was prepared. Diol or other ligands from 3×10^−2 M to 1.0×10^−4 M were serially diluted into the above boronic acid-ARS mix, and absorbance spectra were determined from 350 to 750 nm. (stock solutions were made to 100 mM in DMSO). The higher concentrations of diol would displace the boronic acid from complexation with ARS, liberating free ARS and turning the solution pink. The percent complexed and percent free ARS was determined by comparing absorbance level to fully complexed and free ARS at 440 and 550 nm. The approximate equilibrium constant Keq2 for a given boronic acid-diol complexation was estimated using the formula: Keq=[ARS−PBA]/[ARS]×[PBA] [PBA]=[ARS−PBA]/[ARS]×Keq [Sorb−PBA]=0.002−[PBA]−[ARS−PBA] [Sorb]=Total Sorb−[Sorb−PBA] Keq2=[Sorb PBA]/[Sorb]×[PBA] (where ARS=Alizarin Red S; Sorb=sorbitol; and PBA=Phenylboronic acid as an example).

[2] = LC-MS/MS determination of dimerization of summa linkers; format: physicochemical; settings: for Dimer 4 level: after 115 h
Text: For summa linkers and coferons that form dimers that are slow to hydrolyze/equilibrate under the chromatographic conditions, evidence for dimerization or oligomerization may be generated using LC-MS/MS methods in which the monomeric and dimeric species are separated by reversed-phase liquid chromatography and identified using tandem mass spectrometric methods, typically utilizing MRM transitions to maximize sensitivity. Often this approach is capable of separating and quantifying isomeric and diastereomeric dimeric states of the summa linker and coferon assemblies.
Typically, a solution of the following homodimeric summa linker was incubated under various conditions of pH, concentration, organic cosolvent, or protein additives, etc. and aliquots were chromatographed on a Primesep 200 (150×4.6 mm, 5μ) RP-HPLC column using a flow rate of 1.0 mL/min and a linear gradient of 0.1% aqueous TFA/acetonitrile over 25-30 minutes. Preparations containing a known amount of dimeric species (as determined by NMR for example) can be employed as a standard to allow for accurate quantitation of monomeric and dimeric states. For example, using such conditions, 4 isomeric dimers of the following racemic amino-cyclobutanone summa linker moiety (RT 7.29 min; example 47; >99.7% monomeric) were quantified under various conditions. When incubated at 0.125 mg/mL at 20° C. at pH 2.0 in 0.1% TFA, dimers-1, -2 & -3 eluting at 15, 15.5 and 16 min, respectively, increased from 0.06%, 0.06% and 0.11% at time zero to 2.35, 2.3%, and 5.2% after 169 h; dimer-4 was not observed under these conditions. […] Complete equilibrium between monomer and dimer-4 was not achieved within this timeframe, as dimer-4 was still increasing at 169 h.

[3] = 0.125 mg/mL, 20° C., pH 2.0 in 0.1% TFA, after 169 h
[4] = 0.125 mg/mL, 20° C., pH 2.0 in 0.1% TFA, time zero

## O=C(O)C(O)c1ccccc1 (racemic) [DL-mandelic acid, DL-Mandelic acid]
[1]
  affinity of diol or other ligand for boronic acids in aqueous solution (in words): lower affinities for boronic acids

## O=C[C@H](O)[C@@H](O)[C@H](O)[C@H](O)CO [D-(+)-glucose, D-(+)-Glucose]
[1]
  affinity of diol or other ligand for boronic acids in aqueous solution (in words): lower affinities for boronic acids

## CC(N)(CO)CO [2-amino-2-methyl-1,3-propanediol, 2-Amino-2-methyl-1,3-propanediol]
[1]
  affinity of diol or other ligand for boronic acids in aqueous solution (in words): lower affinities for boronic acids

## O=C(O)c1ccccc1O [salicylic acid, Salicylic acid]
[1]
  affinity of diol or other ligand for boronic acids in aqueous solution (in words): lower affinities for boronic acids

## O=C(NCCO)c1ccccc1O [N-(2-hydroxyethyl)salicylamide, N-(2-Hydroxyethyl)salicylamide]
[1]
  affinity of diol or other ligand for boronic acids in aqueous solution (in words): lower affinities for boronic acids

## CC(O)C(=O)O (stereo not shown) [lactic acid (solution), Lactic acid]
[1]
  affinity of diol or other ligand for boronic acids in aqueous solution (in words): lower affinities for boronic acids

## O=C([O-])C(=O)CO.[Li+] [hydroxypyruvic acid, lithium salt, Hydroxypyruvic acid, Lithium salt]
[1]
  affinity of diol or other ligand for boronic acids in aqueous solution (in words): lower affinities for boronic acids

## O=C(O)C(O)(C(F)(F)F)C(F)(F)F [3,3,3-Trifluoro-2-hydroxy-2-(trifluoromethyl)propionic acid]
[1]
  affinity of diol or other ligand for boronic acids in aqueous solution (in words): lower affinities for boronic acids

## NC(CO)(CO)CO [tris base (TRIZMA Base), Tris Base (TRIZMA Base)]
[1]
  affinity of diol or other ligand for boronic acids in aqueous solution (in words): lower affinities for boronic acids

## O[C@@H]1CCCC[C@H]1O (relative stereo) [trans-1,2-cyclohexanediol, trans-1,2-Cyclohexanediol]
[1]
  affinity of diol or other ligand for boronic acids in aqueous solution (in words): lower affinities for boronic acids

## CNc1ccccc1O [2-(methylamino)phenol, 2-(Methylamino)phenol]
[1]
  affinity of diol or other ligand for boronic acids in aqueous solution (in words): lower affinities for boronic acids

## O[C@@H]1CNC[C@@H]1O [(3S,4R)-pyrrolidine-3,4-diol]
[1]
  affinity of diol or other ligand for boronic acids in aqueous solution (in words): lower affinities for boronic acids

## CC(CO)(CO)CO [1,1,1-tris(hydroxymethyl)ethane, 1,1,1-Tris(hydroxymethyl)ethane]
[1]
  affinity of diol or other ligand for boronic acids in aqueous solution (in words): lower affinities for boronic acids

## OCC(CO)(CO)CO [pentaerythritol, Pentaerythritol]
[1]
  affinity of diol or other ligand for boronic acids in aqueous solution (in words): lower affinities for boronic acids

## O=C(O)C(O)c1cc(F)cc(F)c1 (stereo not shown) [3,5-difluoromandelic acid, 3,5-Difluoromandelic acid]
[1]
  affinity of diol or other ligand for boronic acids in aqueous solution (in words): lower affinities for boronic acids

## Cc1ccc(O)c(N)c1 [2-amino-4-methylphenol, 2-Amino-4-methylphenol]
[1]
  affinity of diol or other ligand for boronic acids in aqueous solution (in words): lower affinities for boronic acids

## O=C(O)C(O)c1ccc(C(F)(F)F)cc1 (stereo not shown) [4-(trifluoromethyl)mandelic acid, 4-(Trifluoromethyl)mandelic acid]
[1]
  affinity of diol or other ligand for boronic acids in aqueous solution (in words): lower affinities for boronic acids

## CC(=O)Nc1ccccc1O [2-acetamidophenol, 2-Acetamidophenol]
[1]
  affinity of diol or other ligand for boronic acids in aqueous solution (in words): lower affinities for boronic acids

## COc1cccc(CO)c1O [2-hydroxy-3-methoxybenzyl alcohol, 2-Hydroxy-3-methoxybenzyl alcohol]
[1]
  affinity of diol or other ligand for boronic acids in aqueous solution (in words): lower affinities for boronic acids

## CC(CO)(CO)C(=O)O [2,2-bis(hydroxymethyl)propionic acid, 2,2-Bis(hydroxymethyl)propionic acid]
[1]
  affinity of diol or other ligand for boronic acids in aqueous solution (in words): lower affinities for boronic acids

## CC(O)(C(=O)O)C(F)(F)F (stereo not shown) [3,3,3-Trifluoro-2-hydroxy-2-methylpropionic Acid]
[1]
  affinity of diol or other ligand for boronic acids in aqueous solution (in words): lower affinities for boronic acids

## O=C(O)C(O)c1c(F)cccc1F (stereo not shown) [2,6-difluoromandelic acid, 2,6-Difluoromandelic acid]
[1]
  affinity of diol or other ligand for boronic acids in aqueous solution (in words): lower affinities for boronic acids

## CC(C)(O)C(C)(C)O [pinacol, Pinacol]
[1]
  affinity of diol or other ligand for boronic acids in aqueous solution (in words): lower affinities for boronic acids

## O[C@@H]1CCCC[C@@H]1O [cis-1,2-cyclohexanediol, cis-1,2-Cyclohexanediol]
[1]
  affinity of diol or other ligand for boronic acids in aqueous solution (in words): lower affinities for boronic acids

## O=C(O)C(O)c1cc(F)ccc1F (stereo not shown) [2,5-difluoromandelic acid, 2,5-Difluoromandelic acid]
[1]
  affinity of diol or other ligand for boronic acids in aqueous solution (in words): lower affinities for boronic acids

## O=C(O)C(O)c1ccccc1F (stereo not shown) [2-fluoromandelic acid, 2-Fluoromandelic acid]
[1]
  affinity of diol or other ligand for boronic acids in aqueous solution (in words): lower affinities for boronic acids

## O=C(O)C(=O)Cc1ccccc1 [phenylpyruvic acid, Phenylpyruvic acid]
[1]
  affinity of diol or other ligand for boronic acids in aqueous solution (in words): lower affinities for boronic acids

## O=C(CO)CO [1,3-dihydroxyacetone]
[1]
  affinity of diol or other ligand for boronic acids in aqueous solution (in words): lower affinities for boronic acids

## CCOC(=O)c1cnc(NC2CCC2=O)nc1C (stereo not shown) [Example 47, Ethyl 4-methyl-2-((2-oxocyclobutyl)amino)pyrimidine-5-carboxylate]
[2]; 0.125 mg/mL, 20° C., pH 2.0 in 0.1% TFA
  dimer-4 formation: not observed
[2]; [3]
  dimer-1 level: 2.35%
  dimer-2 level: 2.3%
  dimer-3 level: 5.2%
[2]; [4]
  dimer-1 level: 0.06%
  dimer-2 level: 0.06%
  dimer-3 level: 0.11%
[2]; 0.5 mg/mL, pH7.4 HEPES buffer with BSA
  fraction of dimer-4 at equilibrium: > 14%
[2]; 0.5 mg/mL, pH7.4 HEPES buffer, in the absence of BSA
  Dimer 4 level: 4.73%
[2]; 0.5 mg/mL, pH7.4 HEPES buffer, in the presence of BSA
  Dimer 4 level: 13.75%
[2]; pH7.4 HEPES buffer, 169 h
  dimer-4 level: 1.82%
[2]; pH7.4 HEPES buffer, over 169 h
  levels of dimers-1, -2, and -3: below 0.01%
[2]; pH7.4 HEPES buffer, start
  dimer-4 level: < 0.015%

## O=C(O)C(O)c1ccc(F)cc1F (stereo not shown) [2,4-difluoromandelic acid, 2,4-Difluoromandelic acid]
[1]
  affinity of diol or other ligand for boronic acids in aqueous solution (in words): lower affinities for boronic acids

## CNCC(O)CO (stereo not shown) [3-methylamino-1,2-propanediol, 3-Methylamino-1,2-propanediol]
[1]
  affinity of diol or other ligand for boronic acids in aqueous solution (in words): lower affinities for boronic acids

## O=C(O)C(O)c1cccc(F)c1F (stereo not shown) [2,3-difluoromandelic acid, 2,3-Difluoromandelic acid]
[1]
  affinity of diol or other ligand for boronic acids in aqueous solution (in words): lower affinities for boronic acids

## O=C(O)c1c(O)cccc1O [2,6-dihydroxybenzoic acid, 2,6-Dihydroxybenzoic acid]
[1]
  affinity of diol or other ligand for boronic acids in aqueous solution (in words): lower affinities for boronic acids

## O=C(O)C1(O)CNC1 [3-hydroxyazetidine-3-carboxylic acid]
[1]
  affinity of diol or other ligand for boronic acids in aqueous solution (in words): lower affinities for boronic acids
